“Also recorded” adds a separate entry of the source. Where two headings read alike, the source gives them in different places.
Experiments:
[1] = system: bone marrow derived phagocytes exposed to Mtb; type: cell-based, mouse
ApoE−/− mice = experiment: Atherosclerosis model, ApoE−/− mice fed high fat Western diet; type: in vivo, mouse
Procedure: Aortic root and arch sections were stained with HE. The mean atherosclerotic area (μm2)±SEM was quantified.
ORO histology was employed to identify lipids in the mouse atherosclerotic plaque. Lipids were quantified by red signal intensity percentage area of plaque±SEM. […] All animals still had very high cholesterol levels and to obtain a reading, the plasma was diluted to 1:10. After analysis, no statistical difference was seen between any group using one way ANOVA paired with Tukey's Multiple Comparison Test. […]
Treatments were administered via 150 μL i.p. injection every 3rd day, for a total of 7 weeks.

C57bl6 mice = details: 0.3 nmol/g i.p.
Procedure: Peritonitis was induced by injecting 3 ml 4% thioglycolate i.p. and after 20 hours, the mice were anaesthetized and the peritoneal cavity was flushed with 5 ml sterile PBS. Subsequently, monocytes/macrophages were quantified with F4/80 and CD11b in flow cytometry.
Peritonitis was induced by injecting 3 ml 4% thioglycolate i.p. and after 20 hours, the mice were anaesthetized and the peritoneal cavity was flushed with 5 ml sterile PBS. Subsequently, monocytes and macrophages were quantified with F4/80 and CD11b in flow cytometry.

[2] = system: stimulated human T lymphocytes; experiment: Cytokine production by anti-CD3/CD28 stimulated human mononuclear cells with Kv1.3 and IDE inhibitors; type: cell-based
Procedure: Peripheral blood was obtained from two healthy donors. Mononuclear cells were purified by Ficol-Hypaque centrifugation. […] The culture supernatants were collected 24 hours post-treatment and were assayed for eleven Th1/Th2 cytokines using a multiplex system (Bender, Cat. No. BMS810FF): IL-1beta, IL-2, IL-4, IL-5, IL-6, IL-8, IL-10, IL-12p70, TNF-alpha, TNF-beta, IFN-gamma.

B7-H1 = details: 200 nM PIF, 10 days, IFN γ at day 7
Procedure: (§1) Mouse splenocytes were used for mixed Lymphocytes Reaction (MLR). Balb/c cells were cultured in the presence of irradiated C57/Bl cells for 4 days. […] Cell proliferation was tested by H3 Tymidine uptake assay. […] One representative experiment is shown out of four performed. […] Anti-CD3 antibodies were added to the medium for T cell activation. Cell proliferation was tested by H3 Thymidine uptake. […] At day 7, 100 ng/ml IFN γ was added. After 10 days cells were analyzed by FACS analysis using anti-B7-H1 antibodies. FIG. 2D illustrates murine macrophages were cultured with GM-CSF for 10 days. IFN-γ was added to the culture at day 7 for cell activation. […] This is relevant since B7-H1 is one of the newly defined inhibitory B7 family molecules. It is known that IFN gamma potently stimulates B7-H1 expression on APC. […] THP-1 cells were incubated for 48 hours, then were stimulated with […] and collected at 0, 1, 8, 12 and 24 hour time points. […] The 8 hour time point was selected to allow time for cell stimulation. The gene regulation comes quickly and the selected time point allows enough time for stimulation and not over/under. […] In the last 24 hours of the experiment, LPS was added to the culture for cell activation. Greiss reagent test was performed to detect NO secretion to the supernatant.

[3] = system: Balb/c splenocytes with irradiated C57/Bl cells; details: 4 days; 150 nM and 200 nM PIF significant
Procedure: as §1

T cells = details: monocytes 10 days with 200 nM PIF, co-culture 4 days, anti-CD3
Procedure: as §1

THP-1 cells [4] = system: THP-1 cells
Procedure: as §1

[5] = system: RAW (Macrophage cell line); details: PIF 200 nM, 2 or 5 day incubation, no LPS
Procedure: as §1
In the last 24 hours of the experiment, LPS was added to the culture for cell activation. […]

[6] = Surface Plasmon Resonance, LPS binding to PIF-labeled sensor surface; design: species or system E. coli; details: LPS 5, 25 and 100 μM, immobilized peptide, preliminary results
Procedure: Surface Plasmon Resonance spectroscopy (SPR) was used to evaluate LPS and LPS receptors binding (TLR4-MD2 and CD14) to the PIF-labeled sensor surface. Two chemotypes of LPS (From E. coli O55:B5 and E. coli EH100) at 3 concentrations (5, 25 and 100 μM) were tested.

PBMCs = experiment: Cytokine secretion of naïve and stimulated PBMCs; type: cell-based, human; details: for TH2 and TH1 cytokines secretion in activated PBMCs: anti-CD3 or anti-CD3/anti-CD28 stimulation
Procedure: FIG. 3A and FIG. 3B illustrate that mitogen stimulation enhances FITC-PIF binding to T and B cell populations. PBMC were cultured with PHA for 24 h. Binding of FITC-PIF to different PBMC populations was determined by two color flow cytometry. Binding was low (<10% in unstimulated cells a, upper panel from left to right) CD4+, CD8+, NK, (CD56+) and B (CD19+) cells. However, it led to a ˜30-fold increase in binding to b (lower panel from left to right), CD4+, CD8+ and B (CD19+) cells. Binding was unchanged for NK cells, even after a 72 hour incubation period. FIG. 3C, FIG. 3D, FIG. 3E, and FIG. 3F illustrate that sPIF promotes TH2/TH1 cytokine bias in stimulated PBMCs. […] FIG. 3B illustrates sPIF (50 nM); FIG. 3C illustrates PIFscr (50 nM); FIG. 3D illustrates sPIF (50 nM)+anti-CD3 mAb; FIG. 3E illustrates PIFscr+anti-CD3 mAb. sPIF affected variably stimulated PBMCs individual cytokines secretion. In contrast, some cytokine secretion in naïve PBMCs decreased (not shown). […] Cytokine secretion determined by Luminex 10-plex. […] PBMCs were cultured in the presence of anti-CD3/anti-CD28-Mab for 24-48 hours. […] The effect on PBMCs at 48 hours was less pronounced (data not shown). At the end of experiment mRNA was extracted and global gene expression was analyzed by using an Affymetrix chip.

Ca++ mobilization = system: Ca++ mobilization
Procedure: FITC-sPIF binding to PBMCs subsets was determined using flow cytometry. sPIF's effect on Ca++ mobilization was tested by Flex station.

THP-1 cells [7] = system: THP-1 cells; remark: listed apart in the source
Nos2 = details: mouse, in vivo

Substance: IFNγ: phagocyte-activating cytokine
- IL-1a, IL-1b, TNFa, MIP-1alpha and KC response to Mtb, PIF and anti-Kv1.3, effect of IFN [1]: lost
- MCP-1, IL-6 and IL-5 response to Mtb and PIF, effect of IFN [1]: stopped

Substance: MVRIKPGSANKPSDD [PIF]
- reduction of plaque area in the aortic root compared to PBS control (ApoE−/− mice; PIF 0.1 mg/kg/day, i.p.): 30%
- plaque area of the aortic arch compared to both doses of scrPIF (ApoE−/− mice; PIF 1 mg/kg/day): reduction
- reduction of plaque area in the aortic root compared to PBS control (ApoE−/− mice; PIF 1 mg/kg/day, i.p.): 46%
- reduction of plaque area of the aortic arch compared to PBS control (ApoE−/− mice; PIF 1 mg/kg/day, i.p.): 43%
- plaque area in the aortic root compared to both doses of scrPIF (ApoE−/− mice; higher dose of PIF (1 mg/kg/day)): statistically significantly reduced
- CD68 in the aortic root and arch (ApoE−/− mice; mouse, in vivo): reduces
- MCP-1 in the aortic root and arch (ApoE−/− mice; mouse, in vivo): reduces
- VCAM-1 in the aortic root and arch (ApoE−/− mice; mouse, in vivo): reduces
- atherosclerosis formation (protective effect) (ApoE−/− mice; mouse, in vivo): reduces
- lipids (Oil Red O staining) in the aortic root and arch (ApoE−/− mice; mouse, in vivo): reduces
- MCP-1 induced monocyte migration in mouse peritonitis model (C57bl6 mice): inhibits
- MCP-1, IL-6 and IL-5 induction by Mtb, effect of PIF [1]: further induced; also recorded: augmented
- MCP-1 secretion by isolated macrophages [1]: increased
- MIG and IP10 chemokines, effect of PIF [1]: modestly augmented
- TNF, IL-1a, IL-1b, IL-6, MCP-1, MIP1a and KC response of BMDCs to Mtb [1]: increased
- TNF, IL-1α, IL-1β, MIP1α and KC induction by Mtb, effect of PIF [1]: augmented
- VEGF and FGFb (growth factors) in BMDCs exposed to Mtb [1]: augmented
- VEGF and FGFβ induction by Mtb, effect of PIF [1]: promoted; also recorded: augmented
- Th1/Th2 cytokine analytes, PIF alone ([2]; PIF 1, 10 and 50 nM, no stimulation, 24 hours): no effect
- binding to intracellular insulin degrading enzyme (IDE) ([2]; concluded from cell based assay using specific IDE inhibitor): bind
- B7-H1 expression (B7-H1): up-regulates
- B7-H1 expression (B7-H1; listed as sPIF): significantly increased
- allogenic lymphocyte proliferation in MLR [3]: reduce cells proliferation in a dose dependent manner
- T cell proliferation with PIF-treated monocytes (T cells): reduced proliferation but did not block it
- VCAM-1, IL-12b and IFNg in THP-1 cells (THP-1 cells [4]): reduced
- baseline NO [5]: did not affect
- binding to LPS chemotypes (SPR) [6]: no apparent LPS binding
- TH2 and TH1 cytokines secretion in activated PBMCs (PBMCs): increased
- TH2 and TH1 cytokines secretion in activated PBMCs (PBMCs; listed as sPIF): promotes
- TH1 (TNF-α, IL2) cytokines in naïve PBMCs (PBMCs; naïve PBMCs): reduces
- cytokine secretion, PIF alone (PBMCs; without TCR stimulation, 24-48 hours): no significant promoting effect
- action through Ca++ mobilization (Ca++ mobilization): does not act through Ca++ mobilization
- MCP-1 induced transmigration of THP-1 cells (THP-1 cells [7]; PIF 1 μM): significantly reduced
- MCP-1 induced transmigration of THP-1 cells (THP-1 cells [7]; PIF 10 μM): significantly reduced
- elevation of Nos2 expression in liver of semi-allogenic BMT mice (Nos2): completely prevented
- anti-CD3-Mab-stimulated proliferation and mixed lymphocyte reaction (human PBMCs): blocked

Source: patent publication US10953071B2, “Compositions and methods for treatment of intracellular damage and bacterial infection” (priority 2011, dated 2021)
